Measurements reported in patent US20060178342A1, “Hyaluronan as a cytotoxic agent, drug pre-sensitizer and chemo-sensitizer in the treatment of disease” (priority 2001, published 2006).

Legend:
[1] = test system: MDA-MB 468 Breast cancer xenografts; test: HA alone on breast cancer xenografts, metastasis, body mass and survival; type: in vivo; settings: 12.5 mg/kg HA, three regimens; significant in 3/3 experiments
Method: To determine the effect of HA on tumor volume in vivo, 12.5 mg/kg of HA was administered on day 1 and 2 of a 7 day cycle for 6 cycles and 12.5 mg/kg on day 1 and 3 of 7 day cycle for 6 cycles (FIG. 9A) or 12.5 mg/kg on day 1 and 8 of 28 day cycle for 6 cycles (FIG. 9B). […] This anti-proliferative effect could be due to the degradation of the HA into apoptotic-inducing fragments and/or the microembolisation effect, which could result in tissue hypoxia and subsequent cell death.
The following table sets forth the results of the administration of HA on breast and colon cancer xenographs, metastasis, body mass and survival in vivo.

MDA-MB-435 = test: Breast cancer cell count assay (Coulter counter), HA ± adriamycin; type: cell-based, human
Method: (§1) Cell lines MDA-MB-468, MDA-MB-435 and MDA-MB-231 were routinely grown and subcultured as a monolayer in 175 cm^2 culture flasks in Leibovitz L-15 Medium supplemented with 10% Foetal calf serum (FCS) and antibiotic/antimycotic reagents at 37° C. in humidity controlled incubator with 100% (v/v) air.
(§2) For the tests, MDA MB-468, MDA MB-231 and MDA MB-435 cell line were grown in 90% Leibovitz L-15 medium supplemented with 10% FCS. When confluent the cultures were washed 1× in HBSS and trypsinised in 0.25% trypsin/0.05% EDTA. The cell suspensions were counted with an automated cell counter (ZM-2 Coulter Counter) by adding 15 mL saline+0.2 ml of cell suspension. • Cells were resuspended to a number of:
(§3) The cells were plated into 48-well plates (1 cm^2 surface area) by adding 1 ml of cell suspension per well. • Cells were allowed to attach for 24 h, before the media was removed, monolayers washed. The test media was; growth media containing 0-1 μM adriamycin or 5-fluorouracil with or without the addition of 0-1 μM of HA (modal Mw 750,000).
(§4) The cells were exposed to the several combinations of HA and drugs for different times and at different concentrations (Table 3).
(§5) After the incubation and growth periods the cell monolayers were washed with HBSS and trypsinised in 0.25% trypsin/0.05% EDTA. The cell suspensions were counted with an automated cell counter (ZM-2 Coulter Counter) by adding 15 mL saline+0.2 ml of cell suspension. Results were expressed as % of no drug control which was calculated as: […]

MDA-MB-468 = test: as above; type: cell-based, human
Method: as §1, §2, §3, §4, §5

MDA-MB-231 = test: as above; type: cell-based, human
Method: as §1, §2, §3, §4, §5

[2] = test system: human breast cancer cells; test: Breast cancer cell count assay, cell line not specified or pooled; type: cell-based; settings: HA incubated 30 min, 1 h, 24 h or 3 days
Method: The cell suspensions were counted with an automated cell counter (ZM-2 Coulter Counter) by adding 15 mL saline+0.2 ml of cell suspension. • Cells were resuspended to a number of: […] The cell suspensions were counted with an automated cell counter (ZM-2 Coulter Counter) by adding 15 mL saline+0.2 ml of cell suspension. Results were expressed as % of no drug control which was calculated as: […]

[3] = 6-week study: treatment toxicity (body mass, blood, organ mass, survival)
Text: Animals were monitored daily for GI tract upset such as diarrhea and weekly for more severe toxicity manifestations such as weight loss.
As one of the major toxicities associated with 5-FU treatment is depression of the bone marrow and subsequent drop in white blood cells it was necessary to assess any treatment associated blood toxicity. Upon anaesthetizing the animals, blood was collected from the heart or great vessels using a needle and syringe. Estimation of white blood cell number by making a 1/50 dilution of blood in mouse tenacity saline (M) and counting it on a haemocytometer. A differential blood count was performed by counting-neutrophils, lymphocytes, and erythrocytes. The total estimation of blood cell sub-populations was compared to published data for mouse blood.
The mass of each organ was calculated as a % of the overall net body weight, and compared to the organ masses of the saline only group (Group 1).

Substance: hyaluronan [HA]
- % T/C versus saline [1]: lower % T/C
- Cytotoxic effect of HA, change in cell number (MDA-MB-435; HA exposure 30 min 100 nM): −12%
- Cytotoxic effect of HA, change in cell number (MDA-MB-435; HA exposure 30 min 500 nM): 0
- Cytotoxic effect of HA, change in cell number (MDA-MB-435; HA exposure 1 h 100 nM): −4%
- Cytotoxic effect of HA, change in cell number (MDA-MB-435; HA exposure 24 h 100 nM): −12%
- Cytotoxic effect of HA, change in cell number (MDA-MB-435; HA exposure 3 days 100 nM): −22%
- Cytotoxic effect of HA, change in cell number (MDA-MB-468; HA exposure 30 min 100 nM): −5%
- Cytotoxic effect of HA, change in cell number (MDA-MB-468; HA exposure 30 min 500 nM): −22%
- Cytotoxic effect of HA, change in cell number (MDA-MB-468; HA exposure 30 min 1000 nM): +2%
- Cytotoxic effect of HA, change in cell number (MDA-MB-468; HA exposure 1 h 100 nM): +3%
- Cytotoxic effect of HA, change in cell number (MDA-MB-468; HA exposure 24 h 100 nM): −5%
- Cytotoxic effect of HA, change in cell number (MDA-MB-468; HA exposure 3 days 100 nM): −29%
- Cytotoxic effect of HA, change in cell number (MDA-MB-231; HA exposure 30 min 100 nM): −27%
- Cytotoxic effect of HA, change in cell number (MDA-MB-231; HA exposure 30 min 1000 nM): −26%
- Cytotoxic effect of HA, change in cell number (MDA-MB-231; HA exposure 1 h 100 nM): −21%
- Cytotoxic effect of HA, change in cell number (MDA-MB-231; HA exposure 24 h 100 nM): −8%
- Cytotoxic effect of HA, change in cell number (MDA-MB-231; HA exposure 3 days 100 nM): −23%
- reduction in breast cancer cell number [2]: 0-29%
- organ mass toxicity [3]: did not result in any dramatic toxicity
- body mass / well being versus 5-FU treatment group ([3]; HA as sole agent or chemosensitizer): did not loose weight, but maintained its body mass
